This is an account of results in publication PMC12346557, “Design, Synthesis, and Anticancer Evaluation of New Small-Molecule EGFR Inhibitors Targeting NSCLC and Breast Cancer” (International Journal of Molecular Sciences, 2025).

Where only a bound is given, the exact number is not on record here.

The subject of assay [1] is MCF-7 cells. Briefly: MTT cytotoxicity assay, MCF-7 cells. The class given is cell-based. To be noted: Homo sapiens, triplicate; for inhibition at 100 µM: MCF7, 100 µM, 72 h; for IC50: MCF7, 72 h culture, 1-100 µM.
For assay [2], the system named is A549 cells. As to the kind of experiment: MTT cytotoxicity assay, A549 cells. It counts as cell-based, human. To be noted: triplicate; for reduction of A549 cell viability: 100 µM, 72 h; for IC50: Homo sapiens, A549, 72 h culture, 1-100 µM.
In the next assay the test system is PBMCs. As to the kind of experiment: MTT cytotoxicity assay, PBMCs (healthy). It counts as cell-based. Particulars: PBMC. The procedure: (§1) A549 and MCF-7 human cancer cell lines were cultured in Dulbecco’s Modified Eagle’s Medium (DMEM) (Wako Pure Chemical Industries, Osaka, Japan) supplemented with 10% fetal bovine serum (FBS) (Equitech-Bio, Kerrville, TX, USA). Jurkat cells, derived from human leukemia, were maintained in RPMI 1640 medium (Wako Pure Chemical Industries) with 10% FBS. PBMCs (Precision Bioservices, Frederick, MD, USA) were cultured in RPMI 1640 medium supplemented with 10% human AB serum (HS) (Gemini, Woodland, CA, USA). All media were supplemented with 89 μg/mL of streptomycin (Meiji Seika Pharma, Tokyo, Japan). Cells were incubated at 37 °C in a humidified atmosphere containing 95% air and 5% CO2. Cancer cells and PBMCs were seeded into 24-well and 96-well microtiter tissue culture plates (Iwaki, Asahi Glass Co., Chiba, Japan) at densities of 4 × 10^4 cells/mL and 5 × 10^5 cells/mL, respectively, and incubated for 72 h prior to drug treatment. The optimal seeding density for cytotoxicity assays was determined through preliminary testing. […] The cellular reduction MTT (Dojindo Molecular Technologies, Kumamoto, Japan) was assessed following established protocols from the literature, with slight modifications.

Assay [3] has as its system MCF-7 cells. As to the kind of experiment: Annexin V/ethidium homodimer-III apoptosis staining, MCF-7 cells. It counts as cell-based, human. Particulars: IC50 concentration, 24 h, compared to control. The procedure: (§2) In this method, green staining indicates apoptotic cells, red indicates necrotic cells, and yellow represents cells in the late stages of apoptosis. This staining was analyzed using a fluorescence microscope. […] Furthermore, the apoptotic effect of B-2 on MCF-7 cells was assessed, showing that 4.3% of the cells underwent apoptosis after treatment, a result that was statistically significant (Figure 5b).
(§3) A549 and MCF-7 cells were treated with B-1 and B-2 at its IC50 concentration for 24 h. Following treatment, the cells were detached using 0.05% trypsin, washed twice with 1× binding buffer, and incubated in the dark at r.t. for 20 min with a staining solution containing 50 μL of 1× binding buffer, 4 μL of FITC-Annexin V solution, 4 μL of ethidium homodimer III solution, and 4 μL of Hoechst 33342 solution. After staining, the cells were washed again with 1× binding buffer, fixed in 2% paraformaldehyde, rinsed with PBS, and analyzed using the Biorevo Fluorescence BZ-9000 all-in-one fluorescence microscope (Keyence, Osaka, Japan).

For assay [4], the target named is T1, recombinant human EGFR (amino acids 695 to C-terminus) (Homo sapiens, UniProt P00533).
T1 construct: recombinant human EGFR (amino acids 695 to C-terminus); purchased Promega Corporation V3831
T1 sequence (P00533 695-1210 limits assumed): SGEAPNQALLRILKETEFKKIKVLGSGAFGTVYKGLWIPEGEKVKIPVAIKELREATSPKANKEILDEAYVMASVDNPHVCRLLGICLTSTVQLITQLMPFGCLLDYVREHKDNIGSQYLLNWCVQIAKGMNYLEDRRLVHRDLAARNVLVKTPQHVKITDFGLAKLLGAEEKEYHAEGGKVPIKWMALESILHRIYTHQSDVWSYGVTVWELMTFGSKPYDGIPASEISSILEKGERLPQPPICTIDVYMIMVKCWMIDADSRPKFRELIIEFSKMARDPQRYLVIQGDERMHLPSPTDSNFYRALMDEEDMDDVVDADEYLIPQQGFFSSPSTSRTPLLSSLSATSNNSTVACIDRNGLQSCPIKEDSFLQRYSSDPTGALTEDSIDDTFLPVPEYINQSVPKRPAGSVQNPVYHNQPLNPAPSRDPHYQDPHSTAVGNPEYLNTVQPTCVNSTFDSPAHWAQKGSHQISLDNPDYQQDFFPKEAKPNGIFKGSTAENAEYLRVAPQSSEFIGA
Briefly: EGFR Kinase Enzyme System / ADP-Glo kinase assay. The class given is biochemical. The procedure:
Overexpression or mutation of the EGFR gene markedly enhances cell growth and proliferation, particularly in NSCLC [41] and breast cancer, making EGFR a well-established and effective therapeutic target for these diseases. Due to their potent activity against NSCLC and breast cancer, B-1 and B-2 were further examined for their potential to inhibit EGFR.
The kinase profiling assay (EGFR Kinase Enzyme System, V3831) was conducted according to the manufacturer’s protocol (Promega Corporation, Madison, WI, USA), with minor modifications. In brief, 95 μL of 2.5× kinase buffer and 15 μL of 100 μM ATP solution were used to prepare dilutions of recombinant human EGFR (amino acids 695 to C-terminus) and its substrate (4:1 Glu:Tyr mixture). Reactions were set up in a 384-well plate, each containing 2 μL of kinase working stock, 2 μL of ATP/substrate working stock, and 1 μL of test compound solution or 5% DMSO as a control. After a 2 h incubation at r.t., kinase activity was measured using the ADP-Glo Kinase Assay (Promega), following the manufacturer’s instructions. Specifically, 5 μL of ADP-Glo Reagent was added to each well and incubated for 40 min, followed by 10 μL of Kinase Detection Reagent and a further 30 min incubation at r.t. Luminescence was recorded using the Infinite M1000 microplate reader (Tecan, Grödig, Austria) with an integration time of 0.5 to 1 s to assess the compounds’ kinase inhibitory effects in a dose-dependent manner.

The next assay has as its system Jurkat cells. As to the kind of experiment: MTT cytotoxicity assay, Jurkat cells. It counts as cell-based, human. Particulars: for IC50: Homo sapiens, Jurkat, MTT; for SI (Selectivity Index): IC50 for PBMC/IC50 for Jurkat cell line. The procedure:
as §1, with “Jurkat cells, derived from human leukemia, were maintained in RPMI 1640 medium (Wako Pure Chemical Industries) with 10% FBS. PBMCs (Precision Bioservices, Frederick, MD, USA) were cultured in RPMI 1640 medium supplemented with 10% human AB serum (HS) (Gemini, Woodland, CA, USA).” left out, “Cells were incubated at 37 °C in a humidified atmosphere containing 95% air and 5% CO2.” left out

The subject of assay [5] is A549 cells. As to the kind of experiment: Annexin V/ethidium homodimer-III apoptosis staining, A549 cells. It counts as cell-based, human. Particulars: IC50 concentration, 24 h, compared to control. The procedure: as §2, §3

In turn, `Cc1ccc(C(=O)/C=C/c2cnc(-c3ccc(Cl)cc3)nc2)cc1` [Compound B-1, (E)-3-(2-(4-Chlorophenyl)pyrimidin-5-yl)-1-(4-methylphenyl)-2-propen-1-one] registered an inhibition at 100 µM with MCF-7 cells [1] of 73%. Moreover, the IC50 was 6.1 ± 1.26 µM with MCF-7 cells [1], > 100 µM in the assay on A549 cells [2], 121 ± 14.8 µM in the assay with PBMCs and 2.12 ± 0.48 µM in the assay on Jurkat cells. For the same molecule, in the assay with A549 cells [2], the “reduction of A549 cell viability” value is reported as 38%. Moreover, the “apoptosis in MCF-7 cells” value with MCF-7 cells [3] is given as 11.6%. The EGFR inhibition entry in assay [4] (1 μM) and in assay [4] (10 μM) was “no inhibitory effect” in each case. In addition, the “SI (Selectivity Index)” value in the assay with Jurkat cells was determined as 57.08.
Regarding `COc1ccc(C(=O)/C=C/c2cnc(-c3ccc(Cl)cc3)nc2)cc1` [Compound B-2, (E)-3-(2-(4-Chlorophenyl)pyrimidin-5-yl)-1-(4-methoxyphenyl)-2-propen-1-one], the “apoptosis in A549 cells” value in the assay with A549 cells [5] is recorded as 16.8%. For the same molecule, in the assay on MCF-7 cells [1], 100 µM produced 52% inhibition. In addition, the IC50 was found to be 8.91 ± 1.38 µM in the assay with MCF-7 cells [1], 2.14 ± 0.83 µM with A549 cells [2], 68.7 ± 9.82 µM in the assay with PBMCs and 2.96 ± 0.44 µM in the assay on Jurkat cells. The “reduction of A549 cell viability” value in the assay with A549 cells [2] was determined as 73%. In addition, the “apoptosis in MCF-7 cells” value with MCF-7 cells [3] was 4.3%. The inhibition at 1 µM in assay [4] (1 μM) came to 26%. Moreover, the inhibition at 10 µM in assay [4] (10 μM) amounted to 66%. In the assay on Jurkat cells, the “SI (Selectivity Index)” value was found to be 23.20.
In the assay with MCF-7 cells [1], `Cc1ccc(C2=NN(C(N)=S)C(c3cnc(-c4ccc(Cl)cc4)nc3)C2)cc1` (centres unmarked) [Compound B-6, 3-(4-Methylphenyl)-5-(2-(4-chlorophenyl)pyrimidin-5-yl)-1-thiocarbamoyl-2-pyrazoline] displayed an inhibition at 100 µM of 79% and an IC50 of 6.52 ± 0.97 µM. Further, in the assay with A549 cells [2], the “reduction of A549 cell viability” value worked out at 44% and the concentration for half-maximal inhibition (IC50) is > 100 µM. This molecule came in with an IC50 with PBMCs of 113 ± 15.1 µM. For the same molecule, in the assay with Jurkat cells, inhibition was half-maximal at 15.1 ± 2.85 µM (IC50) and the “SI (Selectivity Index)” value stood at 7.49.
In the assay on PBMCs, `CS(=O)(=O)CCNCc1ccc(-c2ccc3ncnc(Nc4ccc(OCc5cccc(F)c5)c(Cl)c4)c3c2)o1` [Lapatinib, lapatinib, reference compound] registered an IC50 of 11 ± 2.47 µM.
